Patent US20190254997A1, “METHODS FOR INDUCING STEREOCILIA ON HAIR CELLS” (The Regents of the University of California, priority 2016, published 2019)

Assays:
[1] = tested on: myosin7A-positive cells (HCs) in utricular explants; assay: Effect of Notch inhibition (DAPT) on GM-damaged utricular explants, myosin7A immunoreactivity; type: cell-based, CD-1 mice; settings: for number of myosin7A-positive cells: with or without 20 μM DAPT for 2 days then 5 days without, mean ± SD
Procedure: Effect of notch inhibition. To induce HC-like cells, two days after GM damage, we cultured utricular explants with 20 μM DAPT (N-[N-[(3,5-Difluoropheny)acetyl]-L-alanyl]L-phenylglycinetert-butyl: C23H26F2N2O4, Abcam) for 2 days, followed by 5 days without DAPT. DAPT is a prototypical y-secretase inhibitor. Since Notch signaling requires γ-secretase activity, DAPT is a potent inhibitor of this signaling pathway. As a control, we cultured GM-damaged utricles for 7 days without DAPT. Explants were analyzed for myosin7A immunoreactivity both as whole mounts and as tissue sections
Histochemical analysis. At the end of the culture period, explants were fixed for 15 min in 4% paraformaldehyde and permeabilized with 5% Triton X-100 in phosphate-buffered saline (PBS) after 3×PBS wash. Explants were then exposed to a blocking solution containing 10% bovine serum albumin (BSA), and then incubated with anti-myosin7A rabbit polyclonal antibodies (25-6790; Proteus Bioscience Inc., Ramona, Calif., USA; 1:500). Alexa-Fluor 568 goat anti-rabbit IgG (A-11011, Invitrogen, Calif., USA; 1:100) was used as the secondary antibody. At the same time, specimens were incubated in FITC-conjugated or Alexa-Fluor 633 phalloidin (1:100; Invitrogen) to label F-actin for 1 hr. Finally, the explants were incubated with DAPI for 15 min. Specimens were examined using a Leica TCS-SP2 laser-scanning confocal microscope (Leica Microsystems Inc., Wetzlar, Germany). Cells with phalloidin-positive surface structures were counted in randomly selected areas and averaged in each sample for each condition, using an evaluation reticule 100 μm on each side. Results from 6-7 samples were evaluated, based on initial observations of variability.

[2] = tested on: HC stereociliary bundles and HC bodies of utricular maculae; assay: Gentamicin damage to HC stereociliary bundles and HC bodies in utricular macula explants; type: cell-based, CD-1 mice; settings: 1mM GM for 48 hrs, utricular maculae in vitro, followed to 10 days
Excerpt: Dissection of vestibular maculae and tissue culture. Postnatal mice were decapitated under deep anesthesia and their temporal bones were removed. Utricula maculae were dissected from the surrounding tissue in 0.01M phosphate-buffered saline, pH 7.4. The otoconial membranes were gently removed with a fine needle. Explants of utricular sensory epithelia were placed intact on type I collagen-coated cover glasses (Iwaki, Tokyo, Japan) and maintained in 24-well culture plates (Iwaki) in Dulbecco's modified Eagle's medium (Invitrogen, Eugene, Oreg., USA), supplemented with 6 g/l glucose (Wako Pure Chemicals, Osaka, Japan) and 1.5 g/l penicillin G (Wako Pure Chemicals), at 37° C. in a humidified atmosphere of 95% air and 5% CO2 for 24 hrs.
In order to examine the toxicity of gentamicin (GM) to HC stereociliary bundles and HC bodies, we damaged explants with 1mM GM (Nakarai, Japan) for 48 hrs and then maintained the explants in culture without GM for 10 days. After fixation with 4% paraformaldehyde and histochemistry (see below), we counted stereociliary bundles and HC bodies. Bundles and HC bodies were measured using a 10×40 eyepiece reticule. Each square of the reticule was 100 μm on a side. Surviving hair bundles and HC bodies were counted in each of three randomly selected fields including both striolar and extrastriolar regions, and the values obtained were averaged. […]

Molecule	number of myosin7A-positive cells [1]	number of HC bodies after GM treatment [2]	stereociliary bundles after GM treatment [2]	stereociliary bundles in DAPT-treated explants ([1]; 20 μM DAPT)
gentamicin [GM]	25.4±5.5 /10000 μm2	dramatically decreased	almost entirely lost	
C[C@H](NC(=O)Cc1cc(F)cc(F)c1)C(=O)N[C@H](C(=O)OC(C)(C)C)c1ccccc1 [DAPT, N-[N-[(3,5-Difluoropheny)acetyl]-L-alanyl]L-phenylglycinetert-butyl]	38.5±8.64 /10000 μm2			remained very sparse
